Measured values published in US20260315446A1, “ANTIFUNGAL COMPOUNDS AND USES THEREOF” (priority 2023, published 2026).

Legend:
[1] = In vivo tolerability of JH-FK-08; design: species or system mouse (A/J); settings: 40 mg/kg once daily, 14 days
Procedure: FIG. 14: In vivo tolerability of JH-FK-08. Maximum tolerated dose study of female A/J mice (n=3). Animals received once daily (A) and twice daily (B) dosing, and weight over time was plotted as percent change from initial body weight.
Based on the in vitro fungal and mammalian calcineurin inhibition data, the panel of FK520 analogs was assessed and ranked. Therapeutic index (TI) scores were used to quantify the effects of structural modification on the compounds (Table 8). Therapeutic index scores were calculated for each analog as the ratio of relative change in immunosuppressive and antifungal activities compared to FK506 as previously utilized (see, I-Toy M J, et at. 2022. mBio 13:e0104922). This ratio of therapeutic benefit and host toxicity, or fungal and mammalian calcineurin inhibition, allowed us to quantify and rank these analogs. […] This is the greatest TI found within the library and allowed us to identify JH-FK-08 as a lead candidate for an in vivo study. Tolerability of JH-FK-08 was assessed by monitoring animal responses to drug dosing across 14 days, including changes in weight, fur condition, and behavior. A maximum dose of 40 mg/kg was tested in once a day dosing, and due to solubility limitations, the tolerability of JH-FK-08 at 60 and 80 mg/kg total daily doses was assessed by dosing two equal doses per day (FIG. 14). […]

C. neoformans strain H99 = test: Murine cryptococcal infection, brain fungal burden (Example 3); type: in vivo, Cryptococcus neoformans in A/J mice; settings: 14 days; fluconazole 6 mg/kg, JH-FK-08 40 mg/kg, i.p. twice per day
Procedure: In vivo antifungal activity and therapeutic benefit were assayed by investigating the impact of the FK520 analog on organ fungal burden during cryptococcosis. Specifically, the in vivo efficacy of JH-FK-08 on fungal burden was assessed using A/J female mice. Immunodeficient A/J mice were selected in part due to their defect in complement component five and their susceptibility to cryptococcal infection. Treatment groups included vehicle of 10% Kolliphor: ethanol (1:1) in phosphate-buffered saline (PBS), 6 mg/kg fluconazole, 40 mg/kg JH-FK-08, or the fluconazole and JH-FK-08 combination, all given via intraperitoneal (i.p.) injection twice per day beginning at 4 hours post infection. […] Mice were intranasally infected with C. neoformans strain H99, and fungal burden in the lung, spleen, and brain was assessed after 14 days of treatment.
C. neoformans inoculum was prepared by growing a 5-mL overnight YPD culture spinning in a tissue culture roller drum at 30° C. Cells were pelleted by centrifugation and washed in sterile PBS three times. Cell density was determined by hemocytometer, and cells were diluted to 2×10^6 cells/mL. Mice (10 to 20 g) were infected with 10^5 cells of C. neoformans H99. […] Following inhalation of the inoculum, animals were monitored for post anesthesia recovery. […] Fungal burden was assessed 24 h after the final dose. […]

[2] = test system: C. neoformans growth versus IL-2 in murine T cells; test: Therapeutic index score (immunosuppressive fold change to antifungal fold change relative to FK506); design: species or system Cryptococcus neoformans; mouse; settings: for Therapeutic Index Score: FK506 = 1.0
Procedure, shortened: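 TIscore = ratio of immunosuppressive fold change (IL-2, murine T cells) to antifungal fold change (C. neoformans), both relative to FK506; values >1.0 denote greater fungal specificity. Derived from in vitro fungal versus mammalian calcineurin inhibition data.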

[3] = test system: Aspergillus fumigatus (akuBKu80 hFKBP12); settings: previously shown; cited from earlier work
[4] = in vivo; cited from earlier work
C. neoformans H99 [5] = test: Intranasal model of pulmonary cryptococcosis, lung fungal burden (Example 1); type: in vivo, Cryptococcus neoformans in A/J mice; settings: day 14; JH-FK-05 60 mg/kg, fluconazole 12 mg/kg, i.p. daily
C. neoformans H99 [6] = test: Survival in intranasal cryptococcosis model (Example 1); type: in vivo, Cryptococcus neoformans in A/J mice; settings: 14 days treatment; JH-FK-05 60 mg/kg, fluconazole 12 mg/kg, i.p. daily
Procedure: To verify if this reduction seen in the fungal burdens of JH-FK-05 and combination-treated animals could translate into a meaningful therapeutic effect, the survival of animals infected via the intranasal route was assessed (FIG. 8A). As in the fungal burden model, these animals received daily treatment for only 14 days. Following the termination of treatment, animals were monitored for signs of decline, lethargy, and ultimately, moribundity. Untreated animals in this model typically survive for about 3 weeks, and similar results were observed here (vehicle treatment median survival, 22 days). Corroborating the results of the fungal burden study, a significant extension of survival for both JH-FK-05 (median survival, 26 days) and fluconazole (median survival, 25 days) was observed.
Female A/J mice (3 to 4 weeks old; Jackson Laboratory) were anesthetized utilizing an isoflurane chamber. While anesthetized, […] of 2×10^6 cells/mL suspension was dripped onto the nares of mice, allowing them to inhale the full inoculum. Treatment began 3 h following infection with i.p. dosing of vehicle, 60 mg/kg JH-FK-05, 12 mg/kg fluconazole, or combination. […] After 14 days, animals were either sacrificed for fungal burden analysis or monitored for health and survival until reaching a humane endpoint. […] Statistical significance was determined using log-rank (Mantel-Cox) tests.

CC[C@@H]1/C=C(\C)C[C@H](C)C[C@H](OC)[C@H]2O[C@@](O)(C(=O)C(=O)N3CCCC[C@H]3C(=O)O[C@H](/C(C)=C/C3CC[C@@H](O)[C@H](OC)C3)[C@H](C)[C@@H](O)C/C1=N/NC(=O)OC)[C@H](C)C[C@@H]2OC (some centres unmarked) [JH-FK-08]
tolerability ([1]; 60 and 80 mg/kg total daily in two equal doses): Animals tolerated all dosages
weight difference from vehicle-treated animals ([1]; 60 and 80 mg/kg total daily): ≤ 10%
brain fungal burden (C. neoformans strain H99): no detectable fungal burden

C=CC[C@@H]1/C=C(\C)C[C@H](C)C[C@H](OC)[C@H]2O[C@@](O)(C(=O)C(=O)N3CCCC[C@H]3C(=O)O[C@H](/C(C)=C/[C@@H]3CC[C@@H](O)[C@H](OC)C3)[C@H](C)[C@@H](O)C/C1=N/NC(=O)CC)[C@H](C)C[C@@H]2OC [JH-FK-02]
therapeutic index score (TIscore) ([2]; Example 1, C. neoformans MIC and IL-2 IC50, FK506 = 1.0): 9.7

C=CCC1C=C(C)CC(C)CC(OC)C2OC(O)(C(=O)C(=O)N3CCCCC3C(=O)OC(C(C)=CC3CCC(O)C(OC)C3)C(C)C(O)CC1=O)C(C)CC2OC (centres unmarked) [FK506, reference compound]
Therapeutic index ([2]; Example 3, C. neoformans H99, FK506 = 1.0): 1.0
Therapeutic Index Score ([2]; Table 12, Example 4): 1.0
Therapeutic Index Score ([2]; Table 13, Example 4): 1.0
resistance of hFKBP12-expressing strain [3]: completely resistant
blood brain barrier crossing [4]: known to cross the blood brain barrier

CC[C@@H]1/C=C(\C)C[C@H](C)C[C@H](OC)[C@H]2O[C@@](O)(C(=O)C(=O)N3CCCC[C@H]3C(=O)O[C@H](/C(C)=C/[C@@H]3CC[C@@H](O)[C@H](OC)C3)[C@H](C)[C@@H](O)C/C1=N/NC(C)=O)[C@H](C)C[C@@H]2OC [JH-FK-05]
reduction of lung fungal burden (C. neoformans H99 [5]): ~10 fold
median survival (C. neoformans H99 [6]): 26 days
